Laboratory results published in paper PMC6128881, “Novel insight into the reaction of nitro, nitroso and hydroxylamino benzothiazinones and of benzoxacinones with Mycobacterium tuberculosis DprE1” (Scientific Reports, 2018).
Converted amounts (≈) assume the structure as drawn. “And” between values parts separate entries of the source, which are not always exact repeats. Identical values can stand only once. Like-named read-outs stand apart in the source and are kept apart here.

Legend:
M. vaccae 10670 = experiment: Minimal inhibitory concentration, M. vaccae; type: cell-based; details: n = 1
M. tuberculosis H37Rv = experiment: Minimal inhibitory concentration, M. tuberculosis H37Rv; type: cell-based, Mycobacterium tuberculosis; details: for MIC Mtb-H37Rv / MIC / Inhibition of Mtb-H37Rv (MIC): n = 3; for MIC: read-out: MIC Mtb-H37Rv; for fold higher Mtb MIC of BOZ relative to BTZ counterpart: 5 vs 9, 10 vs PBTZ169
Method: MIC values for M. tuberculosis H37Rv and M. vaccae […] were determined as described previously[33],[34].

Mtb-DprE1 [1] = target: T1, Mtb-DprE1 (Mycobacterium tuberculosis, UniProt P9WJF1); experiment: biochemical; type: biochemical; details: for kinact/Ki: second order rate constant of inactivation, 150 nM Mtb-DprE1, 1 mM FPR, up to 100 min; for dependence of kobs on inhibitor concentration: inhibitor 10 nM to 100 µM; for fold lower kinact/Ki of BOZ than the BTZ counterpart: 4 vs 7, 3 vs 6, 5 vs 9; for fold increase in kinact/Ki as compared to 7: relative to 7
T1 construct: made in house; host or cells: E. coli
T1 sequence (P9WJF1 whole entry): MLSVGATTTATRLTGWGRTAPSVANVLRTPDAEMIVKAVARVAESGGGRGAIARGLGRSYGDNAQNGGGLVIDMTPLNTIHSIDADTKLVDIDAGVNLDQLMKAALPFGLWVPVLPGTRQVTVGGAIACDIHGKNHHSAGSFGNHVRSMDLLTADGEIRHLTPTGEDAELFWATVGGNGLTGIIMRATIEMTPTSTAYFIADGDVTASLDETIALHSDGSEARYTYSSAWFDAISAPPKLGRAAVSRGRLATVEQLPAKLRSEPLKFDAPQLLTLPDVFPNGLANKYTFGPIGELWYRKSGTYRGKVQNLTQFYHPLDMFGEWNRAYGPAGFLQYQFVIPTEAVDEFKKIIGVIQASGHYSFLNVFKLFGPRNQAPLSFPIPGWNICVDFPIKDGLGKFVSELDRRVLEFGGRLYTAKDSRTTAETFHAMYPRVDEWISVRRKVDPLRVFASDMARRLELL

[2] = type: physicochemical; details: pH 7.4
Method: Solubility of compounds was measured by Chemi-Luminescent Nitrogen Detection (CLND)[32]. […] of 10 mM DMSO stock solutions of compounds were diluted to […] with phosphate buffered saline (PBS), pH 7.4, equilibrated for 1 hour at room temperature and filtered through Millipore Multiscreen HTS-PCF filter plates (MSSL BPC) prior to analysis by CLND.

Mtb-DprE1 [3] = target: T1, Mtb-DprE1; experiment: Intact protein mass spectrometry of Mtb-DprE1 after incubation with inhibitor; type: binding; details: for mass increase of Mtb-DprE1 (covalent adduct): incubated in the presence of FPR and FAD, LC-MS; for extent of modification of Mtb-DprE1: 20 μM FAD
M. smegmatis [4] = tested on: M. smegmatis; set-up: method as in PMID 22956199; details: cited from earlier work
M. smegmatis [5] = experiment: MIC against M. smegmatis (literature); type: cell-based
M. smegmatis DprE1 = tested on: M. smegmatis DprE1; set-up: method as in PMID 22956199; details: cited from earlier work; for IC50: read-out: M. smegmatis DprE1 enzymatic IC50
[6] = IC50, final value of the decrease during the first 100 min of reaction, 100 min of reaction
[7] = IC50, starting value of the decrease during the first 100 min of reaction, early reaction time
[8] = Mycobacterium tuberculosis, H37RV

Structure (SMILES)	MIC (M. vaccae 10670)	MIC M. vaccae 10670 (M. vaccae 10670)	MIC Mtb-H37Rv (M. tuberculosis H37Rv)	MIC (M. tuberculosis H37Rv)	kinact/Ki (Mtb-DprE1 [1])	CLND Solubility [2]	dependence of kobs on inhibitor concentration (Mtb-DprE1 [1])	also measured
C[C@H]1COC2(CCN(c3nc(=O)c4cc(C(F)(F)F)cc([N+](=O)[O-])c4s3)CC2)O1 [C00009]	0.001 µM (≈ 0.000431 µg/mL)	0.0004 µg/mL (≈ 0.000927 µM)	0.001 µg/mL (≈ 0.00232 µM)	0.0023 µM (≈ 0.000992 µg/mL)	720 ± 20 M⁻¹ s⁻¹	32 µM		
O=Nc1cc(C(F)(F)F)cc2c(=O)nc(N3CCCCC3)sc12 [Compound 1, 8-Nitroso-2-(piperidin-1-yl)-6-(trifluoromethyl)-4H-1,3-benzothiazin-4-one]								mass increase of Mtb-DprE1 (covalent adduct) (Mtb-DprE1 [3]): 343 Da; IC50 (Mtb-DprE1 [1]; [6]): 3 µM; IC50 (Mtb-DprE1 [1]; [7]): 5 µM
CC1COC2(CCN(c3nc(=O)c4cc(C(F)(F)F)cc(N=O)c4s3)CC2)O1 (centres unmarked) [Compound 8, 2-{2-Methyl-1,4-dioxa-8-azaspiro[4.5]decan-8-yl}-8-nitroso-6-(trifluoromethyl)-4H-1,3 benzothiazin-4-one]							linear dependence	
O=c1nc(N2CCCCC2)oc2c([N+](=O)[O-])cc(C(F)(F)F)cc12 [Compound 4, 8-nitro-2-(piperidin-1-yl)-6-(trifluoromethyl)-4H-1,3-benzoxazin-4-one]							linear dependence	fold lower kinact/Ki of BOZ than the BTZ counterpart (Mtb-DprE1 [1]): 7 fold
O=c1nc(N2CCN(CC3CCCCC3)CC2)oc2c([N+](=O)[O-])cc(C(F)(F)F)cc12 [Compound 10, 2-[4-(cyclohexylmethyl)piperazin-1-yl]-8-nitro-6-(trifluoromethyl)-4H-1,3-benzoxazin-4-one]							hyperbolic dependence	fold higher Mtb MIC of BOZ relative to BTZ counterpart (M. tuberculosis H37Rv): approximately 700 fold; MIC (M. tuberculosis H37Rv; [8]): 0.3 µM (≈ 0.132 µg/mL)
O=c1nc(N2CCN(CC3CCCCC3)CC2)oc2c([N+](=O)[O-])cc(C(F)(F)F)cc12 [C00011]	< 0.11 µM	< 0.05 µg/mL	0.14 µg/mL (≈ 0.318 µM)	0.31 µM (≈ 0.137 µg/mL)	300 ± 40 M⁻¹ s⁻¹	12 µM		
O=c1nc(N2CCOCC2)oc2c([N+](=O)[O-])cc(C(F)(F)F)cc12 [C00007]	18 µM (≈ 6.21 µg/mL)	6.2 µg/mL (≈ 18 µM)	1.4 µg/mL (≈ 4.06 µM)	3.9 µM (≈ 1.35 µg/mL)	4.2 ± 0.1 M⁻¹ s⁻¹	≥510 µM		
O=c1nc(N2CCCCC2)sc2c([N+](=O)[O-])c(Cl)c(C(F)(F)F)cc12 [Compound 11, 7-Chloro-8-nitro-2-(piperidin-1-yl)-6-(trifluoromethyl)-4H-1,3-benzothiazin-4-one]							hyperbolic dependence	mass increase of Mtb-DprE1 (covalent adduct) (Mtb-DprE1 [3]): 378 Da; fold increase in kinact/Ki as compared to 7 (Mtb-DprE1 [1]): 8.7 fold
O=c1nc(N2CCN(CC3CCCCC3)CC2)sc2c([N+](=O)[O-])cc(C(F)(F)F)cc12 [C00010]			0.00019 µg/mL (≈ 0.000416 µM)	0.00042 µM (≈ 0.000192 µg/mL)		32 µM		
O=c1nc(N2CCOCC2)sc2c([N+](=O)[O-])cc(C(F)(F)F)cc12 [C00003]	8.6 µM (≈ 3.11 µg/mL)	3.1 µg/mL (≈ 8.58 µM)	2.1 µg/mL (≈ 5.81 µM)	5.9 µM (≈ 2.13 µg/mL)	17 ± 2 M⁻¹ s⁻¹	≥450 µM		
O=Nc1cc(C(F)(F)F)cc2c(=O)nc(N3CCCCC3)sc12 [C00012]	73 µM (≈ 25.1 µg/mL)	25 µg/mL (≈ 72.8 µM)				250 µM		Inhibition of Mtb-H37Rv (MIC) (M. tuberculosis H37Rv; at 80 μM): 82% Inhibition at 80 μM
CC1CCCC(C)N1c1nc(=O)c2cc(C(F)(F)F)cc([N+](=O)[O-])c2s1 (centres unmarked) [Compound 9, 2-(2,6-Dimethylpiperidin-1-yl)-8-nitro-6-(trifluoromethyl)-4H-1,3-benzothiazin-4-one]							linear dependence	fold increase in kinact/Ki as compared to 7 (Mtb-DprE1 [1]): 6 fold
C[C@H]1COC2(CCN(c3nc(=O)c4cc(C(F)(F)F)cc(N=O)c4s3)CC2)O1 [C00014]	0.06 µM (≈ 0.0249 µg/mL)	0.03 µg/mL (≈ 0.0722 µM)			39 ± 1 M⁻¹ s⁻¹	210 µM		Inhibition of Mtb-H37Rv (MIC) (M. tuberculosis H37Rv; at 0.16 μM): 67% Inhibition at 0.16 μM
O=c1nc(N2CCCCC2)sc2c(NO)cc(C(F)(F)F)cc12 [C00013]	18 µM (≈ 6.22 µg/mL)	6.2 µg/mL (≈ 18 µM)		>80 µM		10 µM		
CC1CCCC(C)N1c1nc(=O)c2cc(C(F)(F)F)cc([N+](=O)[O-])c2o1 (centres unmarked) [Compound 5, 2-(2,6-Dimethylpiperidin-1-yl)-8-nitro-6-(trifluoromethyl)-4H-1,3-benzoxazin-4-one]							linear dependence	fold higher Mtb MIC of BOZ relative to BTZ counterpart (M. tuberculosis H37Rv): 8 fold; fold lower kinact/Ki of BOZ than the BTZ counterpart (Mtb-DprE1 [1]): 31 fold
O=c1nc(N2CCCCC2)oc2c([N+](=O)[O-])cc(C(F)(F)F)cc12 [C00006]	4.6 µM (≈ 1.58 µg/mL)	1.6 µg/mL (≈ 4.66 µM)	5.3 µg/mL (≈ 15.4 µM)	16 µM (≈ 5.49 µg/mL)	5.6 ± 0.1 M⁻¹ s⁻¹	≥510 µM		
O=c1nc(N2CCOCC2)oc2c([N+](=O)[O-])cc(C(F)(F)F)cc12 [Compound 3, 2-(morpholin-4-yl)-8-nitro-6-(trifluoromethyl)-4H-1,3-benzoxazin-4-one]							linear dependence	fold lower kinact/Ki of BOZ than the BTZ counterpart (Mtb-DprE1 [1]): 4 fold
C[C@H]1COC2(CCN(c3nc(=O)c4cc(C(F)(F)F)cc(NO)c4s3)CC2)O1 [BTZ046]								MIC against M. smegmatis (M. smegmatis [4]): 1000 ng/ml and 2.4 μM; fold by which MIC against M. smegmatis is lower than the enzymatic IC50 (M. smegmatis [5]; from literature values): approximately 8 fold; time dependent inhibition of M. smegmatis DprE1 (M. smegmatis DprE1): not observed; IC50 (M. smegmatis DprE1): 20 µM
O=c1nc(N2CCCCC2)sc2c([N+](=O)[O-])cc(C(F)(F)F)cc12 [Compound 7, 8-Nitro-2-(piperidin-1-yl)-6-(trifluoromethyl)-4H-1,3-benzothiazin-4-one]		low micromolar	low micromolar				linear dependence	
O=c1nc(N2CCCCC2)sc2c([N+](=O)[O-])cc(C(F)(F)F)cc12 [C00002]	1.1 µM (≈ 0.395 µg/mL)	0.4 µg/mL (≈ 1.11 µM)	1.2 µg/mL (≈ 3.34 µM)	3.3 µM (≈ 1.19 µg/mL)	39 ± 2 M⁻¹ s⁻¹	370 µM		
O=c1nc(N2CCOCC2)sc2c([N+](=O)[O-])cc(C(F)(F)F)cc12 [Compound 6, 2-(morpholin-4-yl)-8-nitro-6-(trifluoromethyl)-4H-1,3-benzothiazin-4-one]							hyperbolic dependence	
O=c1nc(N2CCCCC2)sc2c(NO)cc(C(F)(F)F)cc12 [Compound 2]								MIC (M. vaccae 10670; Mycolicibacterium vaccae, 10670): 18.1 µM (≈ 6.25 µg/mL); mass increase of Mtb-DprE1 species (covalent adduct) (Mtb-DprE1 [3]; 10 µM Mtb-DprE1, 20 µM compound, absence of FPR and resazurin): 340–343 Da; time for covalent modification of the enzyme to reach completion (Mtb-DprE1 [3]; 20 μM compound, 10 µM Mtb-DprE1, no FPR): approximately one hour; extent of modification of Mtb-DprE1 (Mtb-DprE1 [3]; 30 minutes after incubation): partial modification; extent of modification of Mtb-DprE1 (Mtb-DprE1 [3]; 60 minutes after incubation): complete modification; mass increase of Mtb-DprE1 (covalent adduct) (Mtb-DprE1 [3]): 343 Da; MIC (M. tuberculosis H37Rv; [8]): > 80 µM; IC50 (Mtb-DprE1 [1]; [6]): 0.8 µM; IC50 (Mtb-DprE1 [1]; [7]): 3.5 µM
C[C@H]1COC2(CCN(c3nc(=O)c4cc(C(F)(F)F)cc([N+](=O)[O-])c4s3)CC2)O1 [Compound 12, reference compound]							linear dependence	change in the mass spectrum of Mtb-DprE1 (Mtb-DprE1 [3]; control experiment in the absence of substrate): no change was observed; IC50 (Mtb-DprE1 [1]; after 10 min of reaction time, read-out: enzymatic DprE1 IC50): ~1.5 µM; IC50 (Mtb-DprE1 [1]; after 100 min of reaction time, read-out: enzymatic DprE1 IC50): ~0.12 µM; IC50 (Mtb-DprE1 [1]; equal to half the concentration of enzyme in the assay (150 nM), read-out: limiting IC50 value in theory had the assay been monitored longer): 0.075 µM; fold by which reported M. smegmatis and M. tuberculosis MIC values are lower than M. smegmatis DprE1 IC50 (M. smegmatis [5]; MIC ref 4, IC50 ref 9): approximately 1000 fold; IC50 (M. smegmatis DprE1): 4.5 µM
